Experimental findings from patent EP4389749A1, “SUBSTITUTED 3,7-DIHYDRO-1H-PURINE-2,6-DIONES AND USE THEREOF” (invIOs GmbH, priority 2022, dated 2024) are described below.

Bounds are passed on as bounds.

The subject of one assay is CD4+ T-cells. The assay is described as follows: Immunostimulation assay with anti-CD3/28 stimulated T-cells, CD69 expression by flow cytometry. The assay is classed as cell-based, human. As to conditions: T-cell; purified human CD4+ and CD8+ T-cells, 1 µg/ml anti-CD3, 1 µg/ml anti-CD28, 16 hours, surface FACS; read-out: EC50 CD4+. Summed up:
(§1)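 Human CD4+/CD8+ T-cells purified from buffy-coat PBMCs were stimulated with 1 µg/ml anti-CD3 and 1 µg/ml anti-CD28 plus compound (0.001–30 µM) for 16 h at 37 °C. CD69 measured by flow cytometry; DMSO set minimal, CD3/28 Dynabeads maximal activation; EC50 by variable-slope fit.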
A general note: A flow cytometer gives signals particle by particle.

A further assay concerns CD8+ T-cells. Described as above. The assay is classed as cell-based, human. The note with it: T-cell; purified human CD4+ and CD8+ T-cells, 1 µg/ml anti-CD3, 1 µg/ml anti-CD28, 16 hours, surface FACS; read-out: EC50 CD8+. Summed up:
as §1

What is called EC50 is the concentration giving half of the maximal effect. For `COc1cc(-c2nc3c(c(=O)[nH]c(=O)n3CC(O)C(F)F)n2C)ccc1OCc1ccc(F)cc1` (stereo not shown) [Compound 84, 3-(3,3-difluoro-2-hydroxypropyl)-8-(4-((4-fluorobenzyl)oxy)-3-methoxyphenyl)-7-methyl-3,7-dihydro-1H-purine-2,6-dione], the concentration for a half-maximal effect (EC50) in the assay with CD4+ T-cells is 100 to 500 nM; in the assay with CD8+ T-cells, below 100 nM.
The like results for `Cn1c(-c2ccc(OCc3ccccc3)c(OC(F)(F)F)c2)nc2c1c(=O)[nH]c(=O)n2CC(O)C(F)F` (stereo not shown) [Compound 199, 8-(4-(benzyloxy)-3-(trifluoromethoxy)phenyl)-3-(3,3-difluoro-2-hydroxypropyl)-7-methyl-3,7-dihydro-1H-purine-2,6-dione] were, in that order, below 100 nM and below 100 nM.
The matching figures for `COc1cc(-c2nc3c(c(=O)[nH]c(=O)n3CC(C)O)n2C)ccc1OCc1ccc(C)cc1` (stereo not shown) [Compound 125, 3-(2-hydroxypropyl)-8-(3-methoxy-4-((4-methylbenzyl)oxy)phenyl)-7-methyl-3,7-dihydro-1H-purine-2,6-dione]: 100 to 500 nM and 100 to 500 nM.
The matching figures for `Cn1c(-c2ccc(OCc3ccc(C(F)F)cc3)c(F)c2)nc2c1c(=O)[nH]c(=O)n2CC(O)CF` (stereo not shown) [Compound 63, 8-(4-((4-(difluoromethyl)benzyl)oxy)-3-fluorophenyl)-3-(3-fluoro-2-hydroxypropyl)-7-methyl-3,7-dihydro-1H-purine-2,6-dione]: 100 to 500 nM and 100 to 500 nM.
Take `Cn1c(-c2ccc(Oc3ccc(Cl)cc3)c(Cl)c2)nc2c1c(=O)[nH]c(=O)n2CC(O)CF` (stereo not shown) [Compound 147, 8-(3-chloro-4-(4-chlorophenoxy)phenyl)-3-(3-fluoro-2-hydroxypropyl)-7-methyl-3,7-dihydro-1H-purine-2,6-dione]: the 50% effective concentration (EC50) with CD4+ T-cells and with CD8+ T-cells was below 100 nM each time.
Consider `CC(O)Cn1c(=O)[nH]c(=O)c2c1nc(-c1ccc(Oc3ccc(OC(F)(F)F)cc3Cl)cc1)n2C` (stereo not shown) [Compound 192, 8-(4-(2-chloro-4-(trifluoromethoxy)phenoxy)phenyl)-3-(2-hydroxypropyl)-7-methyl-3,7-dihydro-1H-purine-2,6-dione], for which the EC50 with CD4+ T-cells and with CD8+ T-cells was 1000 to 5000 nM throughout.
Take `CC(O)Cn1c(=O)[nH]c(=O)c2c1nc(-c1ccc(Oc3cccc(C#N)c3)cc1)n2C` (stereo not shown) [Compound 187, 3-(4-(3-(2-hydroxypropyl)-7-methyl-2,6-dioxo-2,3,6,7-tetrahydro-1H-purin-8-yl)phenoxy)benzonitrile]: the 50% effective concentration (EC50) with CD4+ T-cells and in the assay with CD8+ T-cells was 1000 to 5000 nM each time.
On to `Cn1c(-c2ccc(OCc3ccc(C(F)F)cc3)c(F)c2)nc2c1c(=O)[nH]c(=O)n2CC(O)C(F)(F)F` (stereo not shown) [Compound 64, 8-(4-((4-(difluoromethyl)benzyl)oxy)-3-fluorophenyl)-7-methyl-3-(3,3,3-trifluoro-2-hydroxypropyl)-3,7-dihydro-1H-purine-2,6-dione], for which the EC50 in the assay with CD4+ T-cells is above 5000 nM; in the assay on CD8+ T-cells, 1000 to 5000 nM.
The matching figures for `CC(O)Cn1c(=O)[nH]c(=O)c2c1nc(-c1ccc(OCc3ccc(C(F)F)cc3)c(F)c1)n2C` (stereo not shown) [Compound 65, 8-(4-((4-(difluoromethyl)benzyl)oxy)-3-fluorophenyl)-3-(2-hydroxypropyl)-7-methyl-3,7-dihydro-1H-purine-2,6-dione]: 500 to 1000 nM and 100 to 500 nM.
Take `Cc1ccc(COc2ccc(-c3nc4c(c(=O)[nH]c(=O)n4CC(O)CO)n3C)cc2F)cc1` (stereo not shown) [Compound 95, 3-(2,3-dihydroxypropyl)-8-(3-fluoro-4-((4-methylbenzyl)oxy)phenyl)-7-methyl-3,7-dihydro-1H-purine-2,6-dione]: the concentration for a half-maximal effect (EC50) in the assay on CD4+ T-cells and with CD8+ T-cells was 1000 to 5000 nM throughout.
For `Cn1c(-c2ccc(Oc3ccc(OC(F)(F)F)cc3)c(F)c2)nc2c1c(=O)[nH]c(=O)n2CC(O)C(F)(F)F` (stereo not shown) [Compound 167, 8-(3-fluoro-4-(4-(trifluoromethoxy)phenoxy)phenyl)-7-methyl-3-(3,3,3-trifluoro-2-hydroxypropyl)-3,7-dihydro-1H-purine-2,6-dione], the EC50 in the assay with CD4+ T-cells and in the assay on CD8+ T-cells was 100 to 500 nM throughout.
Regarding `COc1cc(-c2nc3c(c(=O)[nH]c(=O)n3CC(C)O)n2C)ccc1Oc1ccc(OC(F)(F)F)cc1` (stereo not shown) [Compound 196, 3-(2-hydroxypropyl)-8-(3-methoxy-4-(4-(trifluoromethoxy)phenoxy)phenyl)-7-methyl-3,7-dihydro-1H-purine-2,6-dione], the 50% effective concentration (EC50) with CD4+ T-cells and in the assay on CD8+ T-cells was 1000 to 5000 nM throughout.
Consider `CC(O)Cn1c(=O)[nH]c(=O)c2c1nc(-c1ccc(Oc3ccc(OC(F)(F)F)cc3)c(F)c1)n2C` (stereo not shown) [Compound 188, 8-(3-fluoro-4-(4-(trifluoromethoxy)phenoxy)phenyl)-3-(2-hydroxypropyl)-7-methyl-3,7-dihydro-1H-purine-2,6-dione], for which the EC50 in the assay with CD4+ T-cells fell in the range of 100 to 500 nM; in the assay with CD8+ T-cells it was 1000 to 5000 nM.
Take `CC(CO)Cn1c(=O)[nH]c(=O)c2c1nc(-c1ccc(Oc3ccc(Cl)cc3)c(Cl)c1)n2C` (stereo not shown) [Compound 150, 8-(3-chloro-4-(4-chlorophenoxy)phenyl)-3-(3-hydroxy-2-methylpropyl)-7-methyl-3,7-dihydro-1H-purine-2,6-dione]: the values for the EC50 in the assay with CD4+ T-cells and with CD8+ T-cells were 500 to 1000 nM and 100 to 500 nM, respectively.
The matching figures for `Cn1c(-c2ccc(Oc3ccc(OC(F)(F)F)cc3F)c(Cl)c2)nc2c1c(=O)[nH]c(=O)n2CC(O)C(F)(F)F` (stereo not shown) [Compound 163, 8-(3-chloro-4-(2-fluoro-4-(trifluoromethoxy)phenoxy)phenyl)-7-methyl-3-(3,3,3-trifluoro-2-hydroxypropyl)-3,7-dihydro-1H-purine-2,6-dione]: 100 to 500 nM and 100 to 500 nM.
As to `CC(O)Cn1c(=O)[nH]c(=O)c2c1nc(-c1ccc(OCc3ccccc3)cc1)n2C` (stereo not shown) [Compound 78, 8-(4-(benzyloxy)phenyl)-3-(2-hydroxypropyl)-7-methyl-3,7-dihydro-1H-purine-2,6-dione], the EC50 is 500 to 1000 nM in the assay with CD4+ T-cells and 100 to 500 nM with CD8+ T-cells.
The like results for `CC(O)Cn1c(=O)[nH]c(=O)c2c1nc(-c1ccc(Oc3ccc(Cl)cc3)c(OC(F)F)c1)n2C` (stereo not shown) [Compound 81, 8-(4-(4-chlorophenoxy)-3-(difluoromethoxy)phenyl)-3-(2-hydroxypropyl)-7-methyl-3,7-dihydro-1H-purine-2,6-dione] were, in that order, 100 to 500 nM and below 100 nM.
The matching figures for `COc1cc(-c2nc3c(c(=O)[nH]c(=O)n3CC(C)O)n2C)ccc1OCc1cccc2ncccc12` (stereo not shown) [Compound 113, 3-(2-hydroxypropyl)-8-(3-methoxy-4-(quinolin-5-ylmethoxy)phenyl)-7-methyl-3,7-dihydro-1H-purine-2,6-dione]: 500 to 1000 nM and 1000 to 5000 nM.
The like results for `COc1cc(-c2nc3c(c(=O)[nH]c(=O)n3CC(C)O)n2C)ccc1OCc1ccc(C(F)F)cc1` (stereo not shown) [Compound 86, 8-(4-((4-(difluoromethyl)benzyl)oxy)-3-methoxyphenyl)-3-(2-hydroxypropyl)-7-methyl-3,7-dihydro-1H-purine-2,6-dione] were, in that order, 100 to 500 nM and 100 to 500 nM.
Regarding `Cn1c(-c2ccc(Oc3ccc(OC(F)(F)F)cc3F)cc2)nc2c1c(=O)[nH]c(=O)n2CC(O)C(F)(F)F` (stereo not shown) [Compound 161, 8-(4-(2-fluoro-4-(trifluoromethoxy)phenoxy)phenyl)-7-methyl-3-(3,3,3-trifluoro-2-hydroxypropyl)-3,7-dihydro-1H-purine-2,6-dione], the half-maximal effective concentration (EC50) with CD4+ T-cells and in the assay with CD8+ T-cells was 100 to 500 nM throughout.
With `CC(O)Cn1c(=O)[nH]c(=O)c2c1nc(-c1ccc(OCc3ccc(F)cc3)c(Cl)c1)n2C` (stereo not shown) [Compound 91, 8-(3-chloro-4-((4-fluorobenzyl)oxy)phenyl)-3-(2-hydroxypropyl)-7-methyl-3,7-dihydro-1H-purine-2,6-dione], the EC50 with CD4+ T-cells and in the assay on CD8+ T-cells was 100 to 500 nM each time.
In the case of `Cc1ccc(COc2ccc(-c3nc4c(c(=O)[nH]c(=O)n4CC(C)O)n3C)cc2F)cc1` (stereo not shown) [Compound 115, 8-(3-fluoro-4-((4-methylbenzyl)oxy)phenyl)-3-(2-hydroxypropyl)-7-methyl-3,7-dihydro-1H-purine-2,6-dione], the 50% effective concentration (EC50) in the assay on CD4+ T-cells and in the assay with CD8+ T-cells was 500 to 1000 nM each time.
`CC(O)Cn1c(=O)[nH]c(=O)c2c1nc(-c1ccc(Oc3ccccc3OC(F)(F)F)cc1)n2C` (stereo not shown) [Compound 190, 3-(2-hydroxypropyl)-7-methyl-8-(4-(2-(trifluoromethoxy)phenoxy)phenyl)-3,7-dihydro-1H-purine-2,6-dione]: the EC50 in the assay on CD4+ T-cells and with CD8+ T-cells was above 5000 nM each time.
Regarding `Cc1cc(-c2nc3c(c(=O)[nH]c(=O)n3CC(C)O)n2C)ccc1OCc1ccccc1` (stereo not shown) [Compound 124, 8-(4-(benzyloxy)-3-methylphenyl)-3-(2-hydroxypropyl)-7-methyl-3,7-dihydro-1H-purine-2,6-dione], the EC50 with CD4+ T-cells and in the assay on CD8+ T-cells was 100 to 500 nM in each case.
Regarding `COc1cc(-c2nc3c(c(=O)[nH]c(=O)n3CC(C)CO)n2C)ccc1OCc1ccc(C(F)F)cc1` (stereo not shown) [Compound 74, 8-(4-((4-(difluoromethyl)benzyl)oxy)-3-methoxyphenyl)-3-(3-hydroxy-2-methylpropyl)-7-methyl-3,7-dihydro-1H-purine-2,6-dione], the half-maximal effective concentration (EC50) in the assay with CD4+ T-cells and in the assay on CD8+ T-cells was 100 to 500 nM each time.
Consider `COc1cc(-c2nc3c(c(=O)[nH]c(=O)n3CC(C)O)n2C)ccc1OCc1cccc2ccncc12` (stereo not shown) [Compound 101, 3-(2-hydroxypropyl)-8-(4-(isoquinolin-8-ylmethoxy)-3-methoxyphenyl)-7-methyl-3,7-dihydro-1H-purine-2,6-dione], for which the EC50 with CD4+ T-cells and in the assay on CD8+ T-cells was 100 to 500 nM throughout.
